Key:
[1] = Inhibitory concentration against mannan binding relative to concanavalin A; Using QCM(quartz crystal microbalance) assay; NA= Not active
[2] = (§1) Inhibitory concentration against mannan binding relative to concanavalin A; Using QCM(quartz crystal microbalance) assay
[3] = as §1; remark: listed apart in the source

Row | SMILES | IC50 [1] | IC50 [2] [mM] | also measured
1 | COC1O[C@H](CSSCC2O[C@H](OC)C(O)[C@@H](O)[C@@H]2O)C(O)[C@@H](O)[C@@H]1O (stereo partly specified) | Not Active | – | –
2 | OCC1O[C@H](S)C(O)[C@@H](O)[C@@H]1O (stereo partly specified) | – | – | Inhibition [3]: 10 mM
3 | CC(=O)NC1C(O)[C@@H](O)C(CO)O[C@H]1SS[C@@H]1OC(CO)[C@H](O)[C@@H](O)C1NC(C)=O (single isomer, unassigned) | Not Active | – | –
4 | CC(=O)NC1[C@@H](O)[C@H](O)C(CO)O[C@H]1SS[C@@H]1OC(CO)[C@@H](O)[C@@H](O)C1NC(C)=O (stereo in doubt) | – | 2 | –

Further lines, with some results ahead:

Row | IC50 [1] | IC50 [2] [mM] | SMILES | also measured
5 | – | 1.1 | CO[C@H]1O[C@H](CO)[C@@H](O)[C@H](O)[C@@H]1O | –
6 | – | 5.3 | OC[C@H]1OC(O)[C@@H](O)[C@@H](O)[C@@H]1O (stereo partly drawn) [D-MANNOSE] | –

— ChEMBL document CHEMBL1145263, “Redox-responsive and calcium-dependent switching of glycosyldisulfide interactions with Concanavalin A” (Bioorg Med Chem Lett, 2005)
